The subject of the test is MV-4-11 cells. Put plainly: Gene expression microarray analysis (Affymetrix PrimeView) and GSEA. To be noted: ProbeSet 11716891_at; LIST B. Also on record: RFU PODN (11730768_x_at) / Fold change /veh PODN (11730768_x_at) / RFU LINC00158 (11744669_a_at) / Fold change /veh LINC00158 (11744669_a_at) / RFU DUSP10 (11751237_a_at) / Fold change /veh DUSP10 (11751237_a_at) / RFU ID3 (11757404_x_at) / Fold change /veh ID3 (11757404_x_at) / RFU PLEKHG5 (11737974_s_at) / Fold change /veh PLEKHG5 (11737974_s_at) / RFU LRRC4B (11730491_at) / Fold change /veh LRRC4B (11730491_at) / RFU GIMAP4 (11747438_a_at) / Fold change /veh GIMAP4 (11747438_a_at) / RFU KRT8 (11758183_x_at) / Fold change /veh KRT8 (11758183_x_at) / RFU CNN1 (11734310_a_at) / Fold change /veh CNN1 (11734310_a_at) / RFU VPS37D (11726825_at) / Fold change /veh VPS37D (11726825_at) / RFU C10orf10 (11716522_x_at) / Fold change /veh C10orf10 (11716522_x_at) / RFU KIR2DL2 /// KIR2DL4 /// KIR2DL5A /// KIR2DL5B /// KIR2DS1 /// KIR2DS2 /// KIR2DS3 /// KIR2DS4 /// KIR3DL3 /// KIR3DL3 /// KIR3DS1 (11738374_at) / Fold change /veh KIR2DL2 /// KIR2DL4 /// KIR2DL5A /// KIR2DL5B /// KIR2DS1 /// KIR2DS2 /// KIR2DS3 /// KIR2DS4 /// KIR3DL3 /// KIR3DL3 /// KIR3DS1 (11738374_at) / RFU C1QL1 (11718748_at) / Fold change /veh C1QL1 (11718748_at) / RFU TMPRSS4 (11747572_a_at) / Fold change /veh TMPRSS4 (11747572_a_at) / RFU HAMP (11756126_x_at) / Fold change /veh HAMP (11756126_x_at) / RFU RNFT2 (11725882_a_at) / Fold change /veh RNFT2 (11725882_a_at) / RFU NR4A2 (11747474_a_at) / Fold change /veh NR4A2 (11747474_a_at) / RFU ABCC12 (11746883_a_at) / Fold change /veh ABCC12 (11746883_a_at) / RFU TMEM136 (11760407_x_at) / Fold change /veh TMEM136 (11760407_x_at) / RFU CLDN22 /// WWC2 (11732394_at) / Fold change /veh CLDN22 /// WWC2 (11732394_at) / RFU HLA-DPB1 (11760878_x_at) / Fold change /veh HLA-DPB1 (11760878_x_at) / RFU SPINT1 (11716480_a_at) / Fold change /veh SPINT1 (11716480_a_at) / RFU GAP43 (11754022_s_at) / Fold change /veh GAP43 (11754022_s_at) / RFU A4GNT (11735810_at) / Fold change /veh A4GNT (11735810_at) / RFU PRB3 (11715151_x_at) / Fold change /veh PRB3 (11715151_x_at) / RFU TUBB4B (11761932_at) / Fold change /veh TUBB4B (11761932_at) / RFU CAPN14 (11732068_a_at) / Fold change /veh CAPN14 (11732068_a_at) / RFU TMCC2 (11721928_a_at) / Fold change /veh TMCC2 (11721928_a_at) / RFU IRGQ (11745062_a_at) / Fold change /veh IRGQ (11745062_a_at) / RFU FAM174B (11720279_a_at) / Fold change /veh FAM174B (11720279_a_at) / RFU TMPRSS4 (11748680_a_at) / Fold change /veh TMPRSS4 (11748680_a_at) / RFU FAM212B (11763350_a_at) / Fold change /veh FAM212B (11763350_a_at) / RFU PLEKHG5 (11743358_a_at) / Fold change /veh PLEKHG5 (11743358_a_at) / RFU ZSCAN30 (11745921_a_at) / Fold change /veh ZSCAN30 (11745921_a_at) / RFU CMKLR1 (11741424_a_at) / Fold change /veh CMKLR1 (11741424_a_at) / RFU LOC101060620 /// MAPK8IP1 (11723275_at) / Fold change /veh LOC101060620 /// MAPK8IP1 (11723275_at) / RFU SPTSSB (11747773_x_at) / Fold change /veh SPTSSB (11747773_x_at) / RFU PRSS12 (11739890_at) / Fold change /veh PRSS12 (11739890_at) / RFU BIN1 (11741810_x_at) / Fold change /veh BIN1 (11741810_x_at) / RFU WNT11 (11732464_a_at) / Fold change /veh WNT11 (11732464_a_at) / RFU C10orf10 (11716521_a_at) / Fold change /veh C10orf10 (11716521_a_at) / RFU C5orf56 (11738089_at) / Fold change /veh C5orf56 (11738089_at) / RFU CYB561 (11721691_x_at) / Fold change /veh CYB561 (11721691_x_at) / RFU ANKRD19P (11752326_a_at) / Fold change /veh ANKRD19P (11752326_a_at) / RFU OR2T12 /// OR2T33 /// OR2T8 (11738714_s_at) / Fold change /veh OR2T12 /// OR2T33 /// OR2T8 (11738714_s_at) / RFU VCAN (11748164_a_at) / Fold change /veh VCAN (11748164_a_at) / RFU JSRP1 (11732532_at) / Fold change /veh JSRP1 (11732532_at) / RFU KRTAP10-11 (11738290_x_at) / Fold change /veh KRTAP10-11 (11738290_x_at) / RFU MYO3A (11730013_a_at) / Fold change /veh MYO3A (11730013_a_at) / RFU EBF3 (11725865_a_at) / Fold change /veh EBF3 (11725865_a_at) / RFU CAMK2N1 (11719241_x_at) / Fold change /veh CAMK2N1 (11719241_x_at) / RFU C5orf56 (11738088_a_at) / Fold change /veh C5orf56 (11738088_a_at) / RFU OLFML3 (11715873_a_at) / Fold change /veh OLFML3 (11715873_a_at) / RFU LOC100653217 /// NTM (11731650_a_at) / Fold change /veh LOC100653217 /// NTM (11731650_a_at) / RFU MAPK11 (11762145_a_at) / Fold change /veh MAPK11 (11762145_a_at) / RFU FIZ1 (11724087_x_at) / Fold change /veh FIZ1 (11724087_x_at) / RFU OASL (11726364_x_at) / Fold change /veh OASL (11726364_x_at) / RFU SOX15 (11748057_x_at) / Fold change /veh SOX15 (11748057_x_at) / RFU CD79A (11719716_a_at) / Fold change /veh CD79A (11719716_a_at) / RFU HIST1H1D (11736915_at) / Fold change /veh HIST1H1D (11736915_at) / RFU CASKIN2 (11723855_a_at) / Fold change /veh CASKIN2 (11723855_a_at) / RFU LOC730098 (11760151_x_at) / Fold change /veh LOC730098 (11760151_x_at) / RFU OR4N2 (11742367_at) / Fold change /veh OR4N2 (11742367_at) / RFU PRRT2 (11749266_a_at) / Fold change /veh PRRT2 (11749266_a_at) / RFU SNX32 (11753110_a_at) / Fold change /veh SNX32 (11753110_a_at) / RFU CDHR5 (11726645_a_at) / Fold change /veh CDHR5 (11726645_a_at) / RFU RCAN1 (11760418_a_at) / Fold change /veh RCAN1 (11760418_a_at) / RFU FAM167A (11723789_a_at) / Fold change /veh FAM167A (11723789_a_at) / RFU FAM26E (11764081_at) / Fold change /veh FAM26E (11764081_at) / RFU ISYNA1 (11749810_s_at) / Fold change /veh ISYNA1 (11749810_s_at) / RFU ACY1 (11761880_at) / Fold change /veh ACY1 (11761880_at) / RFU 11764098_at / Fold change /veh 11764098_at / RFU SAMD14 (11745864_x_at) / Fold change /veh SAMD14 (11745864_x_at) / RFU NPB (11741838_a_at) / Fold change /veh NPB (11741838_a_at) / RFU TMPRSS6 (11731388_a_at) / Fold change /veh TMPRSS6 (11731388_a_at) / RFU KRTAP10-2 (11738614_at) / Fold change /veh KRTAP10-2 (11738614_at) / RFU ARHGAP8 /// PRR5-ARHGAP8 (11727945_x_at) / Fold change /veh ARHGAP8 /// PRR5-ARHGAP8 (11727945_x_at) / RFU KRTAP5-7 /// NADSYN1 (11734609_at) / Fold change /veh KRTAP5-7 /// NADSYN1 (11734609_at) / RFU RASL12 (11751679_a_at) / Fold change /veh RASL12 (11751679_a_at) / RFU CDKN2B (11736163_a_at) / Fold change /veh CDKN2B (11736163_a_at) / RFU PRF1 (11729649_at) / Fold change /veh PRF1 (11729649_at) / RFU, ZNF638 /// ZNF638-IT1 / Fold change vs veh, ZNF638 /// ZNF638-IT1 / RFU, PANK3 / Fold change vs veh, PANK3 / RFU, SH3YL1 / Fold change vs veh, SH3YL1 / RFU, ZEB2 / Fold change vs veh, ZEB2 / RFU, NRIP1 / Fold change vs veh, NRIP1 / RFU, PTTG1IP / Fold change vs veh, PTTG1IP / RFU, CAPN2 / Fold change vs veh, CAPN2 / RFU, MED14 / Fold change vs veh, MED14 / RFU, SNORA58 / Fold change vs veh, SNORA58 / RFU, C1orf63 / Fold change vs veh, C1orf63 / RFU, LRRFIP1 / Fold change vs veh, LRRFIP1 / RFU, NDUFAF7 / Fold change vs veh, NDUFAF7 / RFU, SLC12A2 / Fold change vs veh, SLC12A2 / RFU, IBTK / Fold change vs veh, IBTK / RFU, ESF1 / Fold change vs veh, ESF1 / Fold change vs veh, TMEM50B / RFU, TAOK1 / Fold change vs veh, TAOK1 / RFU, ACBD3 / Fold change vs veh, ACBD3 / RFU, TMA16 / Fold change vs veh, TMA16 / RFU, RWDD3 / Fold change vs veh, RWDD3 / RFU, BCAT1 / Fold change vs veh, BCAT1 / RFU, EDEM3 / Fold change vs veh, EDEM3 / RFU, TMEM33 / Fold change vs veh, TMEM33 / RFU, WDR75 / Fold change vs veh, WDR75 / RFU, AHCTF1 / Fold change vs veh, AHCTF1 / RFU, TFRC / Fold change vs veh, TFRC / RFU, ZDHHC17 / Fold change vs veh, ZDHHC17 / RFU, NOM1 / Fold change vs veh, NOM1 / RFU, ARL8B / Fold change vs veh, ARL8B / RFU, ZBTB11 / Fold change vs veh, ZBTB11 / RFU, TAMM41 / Fold change vs veh, TAMM41 / RFU, KIAA1704 /// LOC100996395 / Fold change vs veh, KIAA1704 /// LOC100996395 / RFU, ING1 / Fold change vs veh, ING1 / RFU, TRMT61B / Fold change vs veh, TRMT61B / RFU, FUBP3 / Fold change vs veh, FUBP3 / RFU, TP53 / Fold change vs veh, TP53 / RFU, TNKS2 / Fold change vs veh, TNKS2 / RFU, ZFP14 / Fold change vs veh, ZFP14 / RFU, ACTR2 / Fold change vs veh, ACTR2 / RFU, PPP3R1 / Fold change vs veh, PPP3R1 / RFU, PIK3R1 / Fold change vs veh, PIK3R1 / RFU, HNRNPA1 / Fold change vs veh, HNRNPA1 / RFU, RNF170 / Fold change vs veh, RNF170 / RFU, ZNF28 / Fold change vs veh, ZNF28 / RFU, RNGTT / Fold change vs veh, RNGTT / RFU, OGT / Fold change vs veh, OGT / RFU, BRD1 / Fold change vs veh, BRD1 / RFU, MARS / Fold change vs veh, MARS / RFU, ZNF655 / Fold change vs veh, ZNF655 / RFU, FAHD1 / Fold change vs veh, FAHD1 / RFU, BDP1 / Fold change vs veh, BDP1 / RFU, LRRCC1 / Fold change vs veh, LRRCC1 / RFU, ARID1A / Fold change vs veh, ARID1A / RFU, ZNF146 / Fold change vs veh, ZNF146 / RFU, ZNF330 / Fold change vs veh, ZNF330 / RFU, GPN3 / Fold change vs veh, GPN3 / RFU, C9orf123 / Fold change vs veh, C9orf123 / RFU, N4BP2L2 / Fold change vs veh, N4BP2L2 / RFU, ARFIP1 / Fold change vs veh, ARFIP1 / RFU, FAM179B / Fold change vs veh, FAM179B / RFU, BCL10 / Fold change vs veh, BCL10 / RFU, UHRF1BP1L / Fold change vs veh, UHRF1BP1L / RFU, BET1 / Fold change vs veh, BET1 / RFU, CNOT2 / Fold change vs veh, CNOT2 / RFU, ZNF268 / Fold change vs veh, ZNF268 / Fold change vs veh, ZNF507 / RFU, DGCR2 / Fold change vs veh, DGCR2 / RFU, WDSUB1 / Fold change vs veh, WDSUB1 / Fold change vs veh, HSP90B1 /// MIR3652 / RFU, ADSS / Fold change vs veh, ADSS / RFU, GK / Fold change vs veh, GK / RFU, ZNF148 / Fold change vs veh, ZNF148 / RFU, TAF9 / Fold change vs veh, TAF9 / RFU, SLC1A5 / Fold change vs veh, SLC1A5 / RFU, SLMO2 / Fold change vs veh, SLMO2 / RFU, ABCC4 / Fold change vs veh, ABCC4 / RFU, LOC101060439 /// RAP1B / Fold change vs veh, LOC101060439 /// RAP1B / RFU, RFX7 / Fold change vs veh, RFX7 / RFU, GTPBP10 / Fold change vs veh, GTPBP10 / RFU, CNEP1R1 / Fold change vs veh, CNEP1R1 / RFU, BIVM-ERCC5 /// ERCC5 / Fold change vs veh, BIVM-ERCC5 /// ERCC5 / RFU, ILF3 / Fold change vs veh, ILF3 / RFU 11762660_at / Fold change /veh 11762660_at / RFU VCAN (11757783_s_at) / Fold change /veh VCAN (11757783_s_at) / RFU DDX43 (11728927_at) / Fold change /veh DDX43 (11728927_at) / RFU KRT8 (11758188_x_at) / Fold change /veh KRT8 (11758188_x_at) / RFU NKD1 (11759106_at) / Fold change /veh NKD1 (11759106_at) / RFU SRD5A1 (11742802_a_at) / Fold change /veh SRD5A1 (11742802_a_at) / RFU TPSAB1 /// TPSB2 (11721975_s_at) / Fold change /veh TPSAB1 /// TPSB2 (11721975_s_at) / RFU GSTM3 (11746129_a_at) / Fold change /veh GSTM3 (11746129_a_at) / RFU IL23R (11737362_x_at) / Fold change /veh IL23R (11737362_x_at) / RFU TMEM51 (11727254_a_at) / Fold change /veh TMEM51 (11727254_a_at) / RFU PIWIL2 (11732686_x_at) / Fold change /veh PIWIL2 (11732686_x_at) / RFU ORM1 (11744905_x_at) / Fold change /veh ORM1 (11744905_x_at) / RFU CCDC152 (11743942_at) / Fold change /veh CCDC152 (11743942_at) / RFU ECM1 (11717891_a_at) / Fold change /veh ECM1 (11717891_a_at) / RFU IL23R (11748794_a_at) / Fold change /veh IL23R (11748794_a_at) / RFU TNFAIP8L3 (11732012_x_at) / Fold change /veh TNFAIP8L3 (11732012_x_at) / RFU MBOAT4 (11741988_at) / Fold change /veh MBOAT4 (11741988_at) / RFU 11764193_at / Fold change /veh 11764193_at / RFU TMEM53 (11763286_at) / Fold change /veh TMEM53 (11763286_at) / RFU MAGEB2 (11727129_at) / Fold change /veh MAGEB2 (11727129_at) / RFU TMEM200A (11744735_a_at) / Fold change /veh TMEM200A (11744735_a_at) / RFU CCDC152 (11751479_a_at) / Fold change /veh CCDC152 (11751479_a_at) / RFU FAM211A (11726209_a_at) / Fold change /veh FAM211A (11726209_a_at) / RFU RGS16 (11746705_a_at) / Fold change /veh RGS16 (11746705_a_at) / RFU VCAN (11755009_s_at) / Fold change /veh VCAN (11755009_s_at) / RFU RHOB (11743442_s_at) / Fold change /veh RHOB (11743442_s_at) / RFU RGS16 (11720943_a_at) / Fold change /veh RGS16 (11720943_a_at) / RFU RGS16 (11720944_at) / Fold change /veh RGS16 (11720944_at) / RFU, VPS4B / Fold change vs veh, VPS4B / RFU, CREB1 / Fold change vs veh, CREB1 / RFU, DNAJC13 / Fold change vs veh, DNAJC13 / RFU, GNAQ / Fold change vs veh, GNAQ / RFU, CDK5R1 / Fold change vs veh, CDK5R1 / RFU, ZRANB3 / Fold change vs veh, ZRANB3 / RFU, CUL4A / Fold change vs veh, CUL4A / RFU, CCNY / Fold change vs veh, CCNY / RFU, UFL1 / Fold change vs veh, UFL1 / RFU, COG3 / Fold change vs veh, COG3 / RFU, DIAPH2 / Fold change vs veh, DIAPH2 / RFU, SKA2 / Fold change vs veh, SKA2 / RFU, AFF3 / Fold change vs veh, AFF3 / RFU, LMF1 / Fold change vs veh, LMF1 / RFU, IPO11 / Fold change vs veh, IPO11 / RFU, DFFB / Fold change vs veh, DFFB / RFU, FOXP1 / Fold change vs veh, FOXP1 / RFU, CARD8 / Fold change vs veh, CARD8 / RFU, STRN3 / Fold change vs veh, STRN3 / RFU, ADK / Fold change vs veh, ADK / RFU, RASSF2 / Fold change vs veh, RASSF2 / RFU, WIPF1 / Fold change vs veh, WIPF1 / RFU, LARP1B / Fold change vs veh, LARP1B / RFU, RASA1 / Fold change vs veh, RASA1 / RFU, RB1 / Fold change vs veh, RB1 / RFU, PPFIA1 / Fold change vs veh, PPFIA1 / RFU, MAT2A / Fold change vs veh, MAT2A / RFU, CCT5 / Fold change vs veh, CCT5 / RFU, WDR92 / Fold change vs veh, WDR92 / RFU, CUX1 / Fold change vs veh, CUX1 / RFU, TTC7A / Fold change vs veh, TTC7A / RFU, TMEM135 / Fold change vs veh, TMEM135 / RFU, DEPTOR / Fold change vs veh, DEPTOR / RFU, CPM / Fold change vs veh, CPM / RFU, DNAJB6 / Fold change vs veh, DNAJB6 / RFU, CACNA2D3 / Fold change vs veh, CACNA2D3 / RFU, DTX4 / Fold change vs veh, DTX4 / RFU, TFCP2 / Fold change vs veh, TFCP2 / RFU, GMCL1 /// GMCL1P1 / Fold change vs veh, GMCL1 /// GMCL1P1 / RFU, AEBP2 / Fold change vs veh, AEBP2 / RFU, SNHG1 /// SNORD22 /// SNORD25 /// SNORD26 /// SNORD27 /// SNORD28 /// SNORD29 /// SNORD31 / Fold change vs veh, SNHG1 /// SNORD22 /// SNORD25 /// SNORD26 /// SNORD27 /// SNORD28 /// SNORD29 /// SNORD31 / Fold change (Aza/veh), C12orf56 (ProbeSet 11735607_a_at) / Fold change (ACY-1035/veh), C12orf56 (ProbeSet 11735607_a_at) / Fold change (Aza/veh), FGFR1OP (ProbeSet 11751329_s_at) / Fold change (ACY-1035/veh), FGFR1OP (ProbeSet 11751329_s_at) / Fold change (Aza/veh), VPS36 (ProbeSet 11739960_a_at) / Fold change (ACY-1035/veh), VPS36 (ProbeSet 11739960_a_at) / RFU SYPL1 (11715823_x_at) / Fold change /veh SYPL1 (11715823_x_at) / RFU IGFBP7 (11715501_s_at) / Fold change /veh IGFBP7 (11715501_s_at) / RFU REEP3 (11722064_at) / Fold change /veh REEP3 (11722064_at) / RFU IGLL1 (11728026_x_at) / Fold change /veh IGLL1 (11728026_x_at): dose or concentration left out as unconfirmed. It is filed as cell-based, human.

For `Nc1ncn([C@@H]2O[C@H](CO)[C@@H](O)[C@H]2O)c(=O)n1` [azacitidine], the “RFU, C9orf123” value is 42.83 RFU.
